Test results published in article PMC10819771 (Pharmaceuticals, 2023).

How the values were obtained:
[1] = test system: FdxT (DNA, hairpin, hexaethylene glycol linker between 10 and 11) TATAGCTATATATAGCTATA; test: FRET melting; settings: 10 mM K+, 90 mM Li+; 10 mM lithium cacodylate pH 7.2; 0.2 µM DNA, 2 µM compound
SiHa = test: MTT antiproliferative assay, SiHa; format: cell-based, human; settings: for IC50: Homo sapiens, SiHa, MTT, 72 h, cervical cancer cells, read-out: IC50 Values (μM) ± SEM SiHa; for Selectivity Index HEK293/SiHa: IC50 HEK293 / IC50 SiHa
Procedure: (§1) The growth-inhibitory effects of the compounds were determined by MTT (3-(4,5-dimethylthiazol-2-yl)-2,5-diphenyltetrazolium bromide) assay on selected cell lines, including HeLa and SiHa (cervical cancers), MDA-MB-231 and MCF-7 (breast cancers), and A2780 ovarian cancer cells. All cell lines were purchased from the European Collection of Cell Cultures (Salisbury, UK) except SiHa, which was obtained from the American Tissue Culture Collection (Manassas, VA, USA). The cells were kept in minimum essential medium supplemented with 10% fetal bovine serum, 1% non-essential amino acids, and 1% penicillin-streptomycin-amphotericin-B at 37 °C in a humidified atmosphere containing 5% CO2. Media and supplements were obtained from Lonza Group Ltd., (Basel, Switzerland). Cancer cells were seeded onto 96-well plates (5000 cells/well), after an overnight incubation the test compounds were added in six concentrations (0.1, 0.3, 1.0, 3.0, 10.0, 30.0 µM) and incubated for 72 h under cell-culture condition. After the incubation, 20 μL of 5 mg/mL MTT solution was added to each well and incubated for a further 4 h. The medium was removed, and the precipitated formazan crystals were dissolved in DMSO for 30 min under shaking at 37 °C. The absorbance was measured at 545 nm with a microplate reader. Untreated cells were included as controls. Calculations were performed by means of the GraphPad Prism 5.01 software (GraphPad Software Inc., San Diego, CA, USA). At least two independent determinations were performed with 5 parallel wells for each condition.

K562 = test: MTS cell proliferation assay, K562; format: cell-based, human; settings: for IC50: Homo sapiens, K562, 72 h, MTS, 3-day incubation, leukemia cells, read-out: IC50 Values (μM) ± SEM K562; for Selectivity Index HEK293/K562: IC50 HEK293 / IC50 K562
Procedure: The human leukemic cell line K562 was grown in RPMI 1640 medium (Life Technology-Invitrogen by Thermo Fisher Scientific, Saint-Aubin, France) supplemented with 10% fetal calf serum (FCS), antibiotics (100 U/mL penicillin, 100 µg/mL streptomycin), and L-glutamine, (Eurobio, Les Ulis, France) at 37 °C, 5% CO2 in air. The MTS cell proliferation assay (Promega, Charbonnières-les-Bains, France) is a colorimetric assay system, which measures the transformation of a tetrazolium component (MTS) into formazan produced by the mitochondria of viable cells. Cells were washed twice in PBS (Phosphate Buffer Saline) and plated in quadruplicate into microtiter-plate wells in 100 μL culture media with or without our various compounds at increasing concentrations (0, 1, 5, 10, 20, and 50 μM) for 1, 2, and 3 days. After 3 h of incubation at 37 °C with 20 μL MTS/well, the plates were read using an ELISA microplate reader (Thermo, Electrocorporation, Waltham, MA, USA) at 490 nm. The amount of color produced was directly proportional to the number of viable cells. The results are expressed as the concentrations inhibiting cell growth by 50% after a 3-day incubation period. The 50% cytotoxic concentrations (CC50) were determined by linear regression analysis, expressed in μM ± SD (Microsoft Excel).

MDA-MB-231 = test: MTT antiproliferative assay, MDA-MB-231; format: cell-based, human; settings: for IC50: Homo sapiens, MDA-MB-231, 72 h, MTT, 72 h, breast cancer cells, read-out: IC50 Values (μM) ± SEM MDA-MB-231; for Selectivity Index HEK293/MDA-MB-231: IC50 HEK293 / IC50 MDA-MB-231
Procedure: as §1

FK-RAST = test: FRET-melting, FK-RAST; format: binding; settings: ligand 2 μM, DNA 0.2 μM, 10 mM KCl, 90 mM LiCl, pH 7.2
Procedure: (§2) FRET-melting experiments were conducted on a Stratagene MX3005P (Thermo Fisher Scientific, Illkirch-Graffenstaden, France) real-time PCR equipment in 96-well plates on the DNA sequences reported in Table 4. Experiments were performed in 10 mM lithium cacodylate buffer (pH 7.2) and either 10 mM KCl and 90 mM LiCl (FK-RAST, FBCL-2T, F21T, and FdxT) or 1 mM KCl and 99 mM LiCl (Fc-MYCT) concentrations, depending on the Tm of the G4s alone. The DNA concentration was 0.2 µM. […] Data are presented as an average of three independent measurements, each conducted in duplicate conditions (λexc = 492 nm, λem = 516 nm, T interval = 25–95 °C, ramp: 25 °C for 5 min, then 1 °C/min, measurements every 1 °C, 8× magnification of the fluorescence signal).

A2780 = test: MTT antiproliferative assay, A2780; format: cell-based, human; settings: for IC50: Homo sapiens, A2780, MTT, 72 h, ovarian cancer cells, read-out: IC50 Values (μM) ± SEM A2780; for Selectivity Index HEK293/A2780: IC50 HEK293 / IC50 A2780
Procedure: as §1

telomerase = test: Telomerase activity (TRAP assay) in MCF-7 cell lysates; format: biochemical, human; settings: MCF-7 cell lysate; for telomerase activity compared to control: 5 µM compound
Procedure: Telomerase activity was assessed using the TRAP assay kit (TRAPeze® RT telomerase detection kit, Chemicon, Millipore Sigma S7700, Merck KGaA, Darmstadt, Germany) according to manufacturer’s instructions with some modifications. Briefly, […] in CHAPS lysis buffer and proteins were extracted. Protein extracts and various concentrations of compounds (0 to 5 µM) were used to extend a synthetic telomeric DNA using an enzymatic reaction (30 °C during 20 min), followed by a quantification of telomeric DNA using a telomeric PCR amplification: 95 °C for 3 min, 2 cycles of 95 °C for 20 s, and 49 °C for 20 s, followed by 30 cycles 95 °C for 20 s and 60 °C for 20 s with signal acquisition) in a Stratagene Mx3005P system (Agilent, Les Ulis, France) using specific telomeric PCR quantitative primers. Each sample was measured in technical duplicate with control DNA. For each drug and each dilution, we used biological triplicate of cell lysates.

HEK293 = test: MTT proliferation test on normal cells, HEK293; format: cell-based; settings: Homo sapiens, normal epithelial cells, cytotoxicity, read-out: IC50 Values (μM) ± SEM HEK293
Procedure: The MTT proliferation test on the epithelial cell line HEK293 was performed as pre-viously described. The 50% inhibiting concentrations (IC50) were determined by linear regression analysis.

FBCL-2T = test: FRET-melting, FBCL-2T; format: binding; settings: ligand 2 μM, DNA 0.2 μM, 10 mM KCl, 90 mM LiCl, pH 7.2
Procedure: as §2

HeLa = test: MTT antiproliferative assay, HeLa; format: cell-based, human; settings: for IC50: Homo sapiens, HeLa, MTT, 72 h, cervical cancer cells, read-out: IC50 Values (μM) ± SEM HeLa; for Selectivity Index HEK293/HeLa: IC50 HEK293 / IC50 HeLa
Procedure: as §1

FdxT = test: FRET-melting, duplex control FdxT; format: binding; settings: ligand 2 μM, DNA 0.2 μM, 10 mM KCl, 90 mM LiCl, pH 7.2, hairpin duplex
Procedure: as §2

MCF-7 = test: MTT antiproliferative assay, MCF-7; format: cell-based, human; settings: for IC50: Homo sapiens, MCF7, 72 h, MTT, 72 h, breast cancer cells, read-out: IC50 Values (μM) ± SEM MCF-7; for Selectivity Index HEK293/MCF-7: IC50 HEK293 / IC50 MCF-7
Procedure: as §1

Fc-MYCT = test: FRET-melting, Fc-MYCT; format: binding; settings: ligand 2 μM, DNA 0.2 μM, K+ conditions, pH 7.2
Procedure: as §2

[2] = test system: human telomeric sequence F21T; test: FRET-melting, F21T; format: binding; settings: ligand 2 μM, DNA 0.2 μM, 10 mM KCl, 90 mM LiCl, pH 7.2
Procedure: as §2

SMILES | IC50 (SiHa) [µM] | Selectivity Index HEK293/SiHa (SiHa) | IC50 (K562) [µM] | Selectivity Index HEK293/K562 (K562) | IC50 (MDA-MB-231) [µM] | Selectivity Index HEK293/MDA-MB-231 (MDA-MB-231) | ΔT1/2 (°C) FK-RAST (FK-RAST) [°C] | IC50 (A2780) [µM] | Selectivity Index HEK293/A2780 (A2780) | telomerase activity compared to control (telomerase) | IC50 (HEK293) [µM] | ΔT1/2 (°C) FBCL-2T (FBCL-2T) [°C] | IC50 (HeLa) [µM] | Selectivity Index HEK293/HeLa (HeLa) | ΔT1/2 (°C) FdxT (FdxT) [°C] | IC50 (MCF-7) [µM] | Selectivity Index HEK293/MCF-7 (MCF-7) | ΔT1/2 (°C) Fc-MYCT (Fc-MYCT) [°C] | ΔT1/2 (°C) F21T [2] [°C] | other results
CN1CCN(CCCNCc2ccc(-c3cc(-c4ccc(CNCCCN5CCN(C)CC5)cc4)c4cc(-c5ccccc5)ccc4n3)cc2)CC1 | – | – | – | – | – | – | – | – | – | – | – | – | – | – | – | – | – | – | – | ΔT1/2 [1]: 0.1 ± 0.2 °C
CN(C)CCCNCc1ccc(-c2nc(-c3ccc(CNCCCN(C)C)cc3)c3ccc(-c4ccccc4)cc3n2)cc1 [Compound 12f, 2,4-bis{4-[(3-dimethylaminopropyl)aminomethyl]phenyl}-7-phenylquinazoline] | 0.75 ± 0.1 | >40.0 | 14 ± 0.3 | >2.14 | 0.55 ± 0.01 | >54.5 | 20.1 ± 0.3 | 0.79 ± 0.19 | >38.0 | reduced drastically | > 30 | 12.6 ± 0.6 | 1.51 ± 0.09 | >19.9 | 2.4 ± 0.1 | 0.58 ± 0.08 | >51.7 | 9.1 ± 1.4 | – | –
CN(C)CCCCNCc1ccc(-c2nc(-c3ccc(CNCCCCN(C)C)cc3)c3ccc(-c4ccccc4)cc3n2)cc1 [Compound 12g, 2,4-bis{4-[(4-dimethylaminobutyl)aminomethyl]phenyl}-7-phenylquinazoline] | 0.52 ± 0.22 | 7.65 | 12 ± 0.3 | 0.33 | 0.67 ± 0.35 | 5.94 | 24.3 ± 1.1 | 1.74 ± 0.89 | 2.29 | – | 3.98 ± 0.12 | 17.5 ± 0.6 | 0.95 ± 0.51 | 4.19 | 3.2 ± 0.3 | 0.63 ± 0.35 | 6.32 | 14.7 ± 0.8 | 19.2 ± 1.0 | –
CN1CCN(CCCNCc2ccc(-c3nc(-c4ccc(CNCCCN5CCN(C)CC5)cc4)c4ccc(-c5ccccc5)cc4n3)cc2)CC1 [Compound 12i] | 0.92 ± 0.24 | >32.6 | 23 ± 0.5 | >1.30 | 0.52 ± 0.02 | >57.7 | 20.2 ± 0.5 | 1.14 ± 0.16 | >26.3 | reduced drastically | > 30 | 14.8 ± 0.7 | 1.15 ± 0.36 | >26.1 | 1.9 ± 0.1 | 0.67 ± 0.31 | >44.8 | 12.5 ± 0.7 | 18.6 ± 0.2 | concentration from which MCF-7 telomerase activity is decreased (telomerase; 0 to 5 µM tested): 5 µM
CN1CCN(CCCCNCc2ccc(-c3nc(-c4ccc(CNCCCCN5CCN(C)CC5)cc4)c4ccc(-c5ccccc5)cc4n3)cc2)CC1 [Compound 12j, 2,4-bis{4-[(4-(4-methylpiperazin-1-yl)butyl)aminomethyl]phenyl}-7-phenylquinazoline] | 0.33 ± 0.08 | 14.85 | 8 ± 0.2 | 0.61 | 1.1 ± 0.15 | 4.45 | 18.7 ± 1.6 | 1.44 ± 0.1 | 3.40 | – | 4.9 ± 0.15 | 9.8 ± 1.0 | 1.48 ± 0.8 | 3.31 | 1.5 ± 0.4 | 0.58 ± 0.25 | 8.45 | 14.1 ± 0.3 | 14.5 ± 1.2 | –
